The text below walks through data of patent US20240261418A1, “SOS1 DEGRADING AGENT AND PREPARATION METHOD THEREFOR AND APPLICATION THEREOF” (SHANGHAI LEADINGTAC PHARMACEUTICAL CO. LTD., priority 2021, published 2024).

The structures appear in SMILES notation.

The assay deals with KRAS G12D mutant human metastatic pancreatic adenocarcinoma cells AsPC-1. Kind of assay: 3D cell proliferation inhibition assay, AsPC-1. The class given is cell-based. The note with it: ASPC1, 168 h, 7 days, CTG. The text has this:
Test Example 4: 3D Cell Proliferation Inhibition Assay
The inhibitory effect of the compounds on the proliferation of 3D cells was investigated on KRAS G12C mutant human non-small cell lung cancer cells NCI-H358 (ATCC or Stem Cell Bank, Chinese Academy of Sciences), KRAS G12D mutant human metastatic pancreatic adenocarcinoma cells AsPC-1 (ATCC), KRAS G12V mutant human lung adenocarcinoma cells NCI-H441 (ATCC), and KRAS G13D mutant human colorectal adenocarcinoma epithelial cells DLD-1 (ATCC). The specific procedures were as follows:
200 nL of compound solution diluted in a gradient was added to corresponding microwells of a 384-well low-adsorption microwell plate (Corning, 3657) using an Echo sonic pipetting system (Labcyte, Echo 550), so that the final concentration of the test compound in the reaction system was in a range of 20000 nM-0.008 nM. Then 40 μL of cells at a certain density were added to the corresponding microplate. In addition to test wells for the test compounds, both a DMSO control well and a medium control well were set, with the DMSO control well containing DMSO and cells and the medium well containing only medium. […] The plate was incubated at room temperature for 30 min and read on a microplate reader EnVision using the chemiluminescence program. […]

Turning to `COc1cc2nc(C)nc(N[C@H](C)c3cc(-c4c(Cl)cccc4CN(C)C)cs3)c2cc1[C@H]1CC[C@H](C(=O)N2CCN(CC3CCC4(CC3)CCN(C(=O)c3ccc(Cl)c(N5CCC(=O)NC5=O)c3)CC4)CC2)CC1` [Example 1, 1-(2-chloro-5-(9-((4-((1R,4R)-4-(4-(((R)-1-(4-(2-chloro-6-((dimethylamino)methyl)phenyl)thien-2-yl)ethyl)amino)-7-methoxy-2-methylquinazolin-6-yl)cyclohexane-1-carbonyl)piperazin-1-yl)methyl)-3-azaspiro[5.5]undecane-3-carbonyl)phenyl)dihydropyrimidine-2,4(1H,3H)-dione], the IC50 was 15 to 30 nM.
Next, `COc1cc2nc(C)nc(N[C@H](C)c3cc(-c4c(Cl)cccc4CN(C)C)cs3)c2cc1[C@H]1CC[C@H](C(=O)N2CCC(CCOCC3CCN(C(=O)c4ccc(Cl)c(N5CCC(=O)NC5=O)c4)CC3)CC2)CC1` [Example 5, 1-(2-chloro-5-(4-((2-(1-((1R,4R)-4-(4-(((R)-1-(4-(2-chloro-6-((dimethylamino)methyl)phenyl)thien-2-yl)ethyl)amino)-7-methoxy-2-methylquinazolin-6-yl)cyclohexane-1-carbonyl)piperidin-4-yl)ethoxy)methyl)piperidine-1-carbonyl)phenyl)dihydropyrimidine-2,4(1H,3H)-dione]: 100 to 1000 nM.
